Measured values: patent US12162865B2, “Methods of treating cancer” (Epizyme, Inc., priority 2012, dated 2024)
Entries after “also recorded” stand apart in the source; their conditions may differ. Read-outs that look alike come from different tables or passages of the source.

Experiments:
[1] = molecular target: CARM1 (Homo sapiens, UniProt Q86X55); test: Histone methyltransferase inhibition, CARM1; assay type: biochemical
[2] = molecular target: DOT1L (Homo sapiens, UniProt Q8TEK3); test: Histone methyltransferase inhibition, DOT1L; assay type: biochemical
[3] = molecular target: EHMT1 (Homo sapiens, UniProt Q9H9B1); test: Histone methyltransferase inhibition, EHMT1; assay type: biochemical
[4] = molecular target: EHMT2 (Homo sapiens, UniProt Q96KQ7); test: Histone methyltransferase inhibition, EHMT2; assay type: biochemical
[5] = molecular target: PRMT1 (Homo sapiens, UniProt Q99873); test: Histone methyltransferase inhibition, PRMT1; assay type: biochemical
[6] = molecular target: PRMT3 (Homo sapiens, UniProt O60678); test: Histone methyltransferase inhibition, PRMT3; assay type: biochemical; settings: read-out: % Inhibition at 1 μM Compound A, mean and SD of duplicate experiments
[7] = molecular target: PRMT5/MEP50 (Homo sapiens, UniProt O14744); test: Histone methyltransferase inhibition, PRMT5/MEP50; assay type: biochemical
[8] = molecular target: PRMT6 (Homo sapiens, UniProt Q96LA8); test: Histone methyltransferase inhibition, PRMT6; assay type: biochemical; settings: read-out: % Inhibition at 1 μM Compound A, mean and SD of duplicate experiments
[9] = molecular target: PRMT8 (Homo sapiens, UniProt Q9NR22); test: Histone methyltransferase inhibition, PRMT8; assay type: biochemical
[10] = molecular target: SETD7 (Homo sapiens, UniProt Q8WTS6); test: Histone methyltransferase inhibition, SETD7; assay type: biochemical; settings: read-out: % Inhibition at 1 μM Compound A, mean and SD of duplicate experiments
[11] = molecular target: SMYD2 (Homo sapiens, UniProt Q9NRG4); test: Histone methyltransferase inhibition, SMYD2; assay type: biochemical
[12] = molecular target: SMYD3 (Homo sapiens, UniProt Q9H7B4); test: Histone methyltransferase inhibition, SMYD3; assay type: biochemical; settings: read-out: % Inhibition at 1 μM Compound A, mean and SD of duplicate experiments
[13] = molecular target: WHSC1 (Homo sapiens, UniProt O96028); test: Histone methyltransferase inhibition, WHSC1; assay type: biochemical
[14] = molecular target: WHSC1L1 (Homo sapiens, UniProt Q9BZ95); test: Histone methyltransferase inhibition, WHSC1L1; assay type: biochemical
[15] = system: WSU-DLCL2 Human Lymphoma Cells; test: Washout experiments, WSU-DLCL2 proliferation (LCC); assay type: cell-based
[16] = system: WSU-DLCL2 cells; test: Cell cycle progression and apoptosis (TUNEL), WSU-DLCL2; assay type: cell-based, human
[17] = system: G401 SMARCB1-deleted cells; test: Cell cycle analysis (flow cytometry) and TUNEL assay, G401; assay type: cell-based; settings: 1 μM, up to 14 days
Protocol: (§1) Cell cycle analysis and TUNEL assay were performed using a Guava® flow cytometer, following the manufacturer's protocol.

[18] = system: RD SMARCB1 wild-type cells; test: Cell cycle analysis (flow cytometry) and TUNEL assay, RD; assay type: cell-based; settings: 1 μM, up to 14 days
Protocol: as §1

[19] = system: SMARCB1 regulated genes in G401 cells; test: Gene expression analysis (qPCR), G401 cells; assay type: cell-based; settings: 1 μM, up to 7 days, time-dependent
Protocol: (§2) Gene expression was normalized to 18S (AB #Hs99999901_s1) and fold change was calculated using the ΔΔCt method. For the in vivo samples, the average Ct value+/−SD was determined for each dose group and fold change compared to vehicle dose group was calculated using the ΔΔCt method.

[20] = system: SMARCB1 regulated genes in RD control cells; test: Gene expression analysis (qPCR), RD cells; assay type: cell-based; settings: 1 μM
Protocol: as §2

[21] = system: G402 SMARCB1-deleted cells; test: Cell morphology, G402 cells; assay type: cell-based; settings: 1 μM, 14 days
[22] = system: KARPAS-422 xenografts; test: KARPAS-422 xenograft in mice; assay type: in vivo, nude mice; settings: for antitumor effect, intermittent dosing schedules: 7-day on/7-day off and 21 day on/7 day off
[23] = Oral administration to rodents (bioavailability); assay type: in vivo; settings: administered to rodents
[24] = system: OCI-LY19 cells; settings: OCI-LY19 (EZH2 wild type for residue Y641)
[25] = system: Pfeiffer cells; settings: Pfeiffer (EZH2 A677G); 11-day proliferation
[26] = system: WSU-DLCL2 cells; settings: with mouse plasma protein binding considered
[27] = system: H3K27Me3 in G401 cells; settings: 4 days, acid-extracted histones, immunoblot
Protocol: (§3) A204, G401, and G402 cells were cultured in McCoys 5a+10% FBS.
(§4) Cells were pelleted, washed with ice cold PBS, resuspended in ice cold RIPA buffer, and incubated on ice for 5 minutes. Lysates were sonicated 3× for 10 sec at 50% power, then incubated on ice for 10 minutes. Lysates were then centrifuged at max speed for 15 minutes at 4 degrees in a table top centrifuge. Clarified lysates were aliquoted to a fresh tube, and protein concentrations for WCL were determined by BCA assay (Pierce).

[28] = system: H3K27Me3 in RD cells; settings: 4 days, acid-extracted histones, immunoblot
Protocol: as §3, §4

[29] = system: G401 cells; settings: pretreated 7 days, replated on day 0
Protocol: SJCRH30 cells were cultured in RPMI+10% FBS. A204, G401, and G402 cells were cultured in McCoys 5a+10% FBS. KYM-1 cells were cultured in DMEM/Ham's F12+10% FBS.
Plates were read on Day 0, Day 4, and Day 7 using CellTiter-Glo® (Promega), with compound/media being replenished on Day 4. On Day 7, the 6-well plates were trypsinized, centrifuged, and resuspended in fresh media for counting by Vi-Cell. Cells from each treatment were replated at the original density in 96-well plates in triplicate. Cells were allowed to adhere to the plate overnight, and cells were treated as on Day 0. […] Averages of triplicates were used to plot proliferation over the timecourse, and calculate IC50 values.

[30] = system: subcutaneous G401 xenografts
Protocol: ELISA: Histones were isolated from tumors as previously described (Daigle et al) and were prepared in equivalent concentrations (0.5 ng/ul for H3 and 4 ng/ul for H3K27Me3) in coating buffer (PBS with 0.05% BSA). […] The plates were sealed and incubated overnight at 4° C. The following day, plates were washed 3 times with 300 μL/well PBST (PBS with 0.05% Tween 20; 10×PBST, KPL #51-14-02) on a Bio Tek plate washer. Plates were blocked with 300 μL/well of diluent (PBS+2% BSA+0.05% Tween 20), incubated at room temperature for 2 hours, and washed 3 times with PBST. All antibodies were diluted in diluent. […] Plates were incubated for 90 minutes at room temperature and washed 3 times with PBST. […] Plates were washed 4 times with PBST. For detection, 100 μL/well of TMB substrate (BioFx Laboratories, #TMBS) was added and plates incubated in the dark at room temperature for 5 minutes. Reaction was stopped with 100 μL/well 1N H2SO4. Absorbance at 450 nm was read on SpectraMax M5 Microplate reader.
Xenograft study: All the procedures related to animal handling, care and the treatment in this study were performed according to the guidelines approved by the Institutional Animal Care and Use Committee (IACUC) of Shanghai Chemparner following the guidance of the Association for Assessment and Accreditation of Laboratory Animal Care (AAALAC). […] Animal body weights were measured every day during the first week, then twice weekly for the remainder of the study. Tumor size was measured twice weekly in two dimensions using a caliper, and the volume was expressed in mm^3. […] The remaining mice continued dosing for one more week, and from day 29, treatment was stopped and the mice were enrolled in a tumor growth delay study. Mice were observed as individuals until they reached the tumor weight endpoint (2000 mm^3) or until day 60 (whichever came first).

[31] = system: SNF5 mutant cell line A204; test: Response of cell lines to Compound E (FIG. 2), A204; assay type: cell-based
[32] = system: SNF5 mutant cell line G401; test: Response of cell lines to Compound E (FIG. 2), G401; assay type: cell-based
[33] = system: SNF5 mutant cell line G402; test: Response of cell lines to Compound E (FIG. 2), G402; assay type: cell-based
[34] = system: G401 SNF mutant cell line; test: Soft agar growth, G401; assay type: cell-based; settings: after 7 days
[35] = system: LNCAP prostate cancer cells; test: Cell growth inhibition in vitro, LNCAP; assay type: cell-based
[36] = system: ATRX mutant SCLC line NCI-H446; test: Response of ATRX mutant SCLC lines to Compound E, NCI-H446; assay type: cell-based
[37] = system: ATRX mutant SCLC line SW1271; test: Response of ATRX mutant SCLC lines to Compound E, SW1271; assay type: cell-based
[38] = system: ATRX mutant SCLC line NCI-H841; test: Response and morphology of ATRX mutant SCLC line NCI-H841 with Compound E; assay type: cell-based
[39] = read-out: % Inhibition at 1 μM Compound A, mean and SD of duplicate experiments
[40] = 4-day Compound A, 11-day Washout
[41] = 7-day Compound A, 7-day Washout

Chain of DOT1L (Q8TEK3 whole entry, species assumed): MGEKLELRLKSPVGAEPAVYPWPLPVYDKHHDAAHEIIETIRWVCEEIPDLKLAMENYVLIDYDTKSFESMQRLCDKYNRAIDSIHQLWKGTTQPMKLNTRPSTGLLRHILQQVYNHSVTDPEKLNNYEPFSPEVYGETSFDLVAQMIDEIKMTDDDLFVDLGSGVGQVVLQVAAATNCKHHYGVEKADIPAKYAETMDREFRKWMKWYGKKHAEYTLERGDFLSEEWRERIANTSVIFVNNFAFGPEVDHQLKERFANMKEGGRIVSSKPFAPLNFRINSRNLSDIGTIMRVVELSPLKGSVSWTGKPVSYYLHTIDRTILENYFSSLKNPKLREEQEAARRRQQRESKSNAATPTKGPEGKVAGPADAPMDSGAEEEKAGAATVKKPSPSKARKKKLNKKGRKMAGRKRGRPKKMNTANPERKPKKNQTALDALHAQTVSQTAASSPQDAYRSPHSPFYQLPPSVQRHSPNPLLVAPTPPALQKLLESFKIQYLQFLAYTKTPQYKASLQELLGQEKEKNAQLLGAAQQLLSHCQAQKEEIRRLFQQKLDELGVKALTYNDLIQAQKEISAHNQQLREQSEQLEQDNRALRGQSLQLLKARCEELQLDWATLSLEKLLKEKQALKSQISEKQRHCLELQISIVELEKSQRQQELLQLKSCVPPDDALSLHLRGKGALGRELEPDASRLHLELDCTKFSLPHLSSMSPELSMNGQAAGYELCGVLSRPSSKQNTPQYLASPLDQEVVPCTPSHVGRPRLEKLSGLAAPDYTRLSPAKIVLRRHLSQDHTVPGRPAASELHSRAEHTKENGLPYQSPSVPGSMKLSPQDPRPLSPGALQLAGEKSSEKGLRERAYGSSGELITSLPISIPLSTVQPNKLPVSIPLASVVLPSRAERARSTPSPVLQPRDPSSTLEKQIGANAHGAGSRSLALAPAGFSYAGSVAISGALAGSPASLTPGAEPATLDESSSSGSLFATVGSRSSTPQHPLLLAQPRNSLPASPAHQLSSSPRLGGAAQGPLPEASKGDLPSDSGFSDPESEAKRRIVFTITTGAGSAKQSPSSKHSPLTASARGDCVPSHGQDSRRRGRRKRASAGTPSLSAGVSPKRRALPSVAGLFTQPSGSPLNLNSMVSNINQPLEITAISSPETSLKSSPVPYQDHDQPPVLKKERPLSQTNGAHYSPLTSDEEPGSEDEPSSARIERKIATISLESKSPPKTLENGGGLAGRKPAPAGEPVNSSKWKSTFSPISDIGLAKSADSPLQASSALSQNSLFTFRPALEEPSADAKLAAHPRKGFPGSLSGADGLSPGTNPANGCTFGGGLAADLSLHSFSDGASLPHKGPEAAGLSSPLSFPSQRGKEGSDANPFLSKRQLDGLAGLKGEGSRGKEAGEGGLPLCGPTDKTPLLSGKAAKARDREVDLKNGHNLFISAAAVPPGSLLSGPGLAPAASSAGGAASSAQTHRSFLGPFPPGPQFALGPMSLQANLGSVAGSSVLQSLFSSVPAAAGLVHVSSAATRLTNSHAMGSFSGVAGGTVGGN
Chain of EHMT1 (Q9H9B1 whole entry, species assumed): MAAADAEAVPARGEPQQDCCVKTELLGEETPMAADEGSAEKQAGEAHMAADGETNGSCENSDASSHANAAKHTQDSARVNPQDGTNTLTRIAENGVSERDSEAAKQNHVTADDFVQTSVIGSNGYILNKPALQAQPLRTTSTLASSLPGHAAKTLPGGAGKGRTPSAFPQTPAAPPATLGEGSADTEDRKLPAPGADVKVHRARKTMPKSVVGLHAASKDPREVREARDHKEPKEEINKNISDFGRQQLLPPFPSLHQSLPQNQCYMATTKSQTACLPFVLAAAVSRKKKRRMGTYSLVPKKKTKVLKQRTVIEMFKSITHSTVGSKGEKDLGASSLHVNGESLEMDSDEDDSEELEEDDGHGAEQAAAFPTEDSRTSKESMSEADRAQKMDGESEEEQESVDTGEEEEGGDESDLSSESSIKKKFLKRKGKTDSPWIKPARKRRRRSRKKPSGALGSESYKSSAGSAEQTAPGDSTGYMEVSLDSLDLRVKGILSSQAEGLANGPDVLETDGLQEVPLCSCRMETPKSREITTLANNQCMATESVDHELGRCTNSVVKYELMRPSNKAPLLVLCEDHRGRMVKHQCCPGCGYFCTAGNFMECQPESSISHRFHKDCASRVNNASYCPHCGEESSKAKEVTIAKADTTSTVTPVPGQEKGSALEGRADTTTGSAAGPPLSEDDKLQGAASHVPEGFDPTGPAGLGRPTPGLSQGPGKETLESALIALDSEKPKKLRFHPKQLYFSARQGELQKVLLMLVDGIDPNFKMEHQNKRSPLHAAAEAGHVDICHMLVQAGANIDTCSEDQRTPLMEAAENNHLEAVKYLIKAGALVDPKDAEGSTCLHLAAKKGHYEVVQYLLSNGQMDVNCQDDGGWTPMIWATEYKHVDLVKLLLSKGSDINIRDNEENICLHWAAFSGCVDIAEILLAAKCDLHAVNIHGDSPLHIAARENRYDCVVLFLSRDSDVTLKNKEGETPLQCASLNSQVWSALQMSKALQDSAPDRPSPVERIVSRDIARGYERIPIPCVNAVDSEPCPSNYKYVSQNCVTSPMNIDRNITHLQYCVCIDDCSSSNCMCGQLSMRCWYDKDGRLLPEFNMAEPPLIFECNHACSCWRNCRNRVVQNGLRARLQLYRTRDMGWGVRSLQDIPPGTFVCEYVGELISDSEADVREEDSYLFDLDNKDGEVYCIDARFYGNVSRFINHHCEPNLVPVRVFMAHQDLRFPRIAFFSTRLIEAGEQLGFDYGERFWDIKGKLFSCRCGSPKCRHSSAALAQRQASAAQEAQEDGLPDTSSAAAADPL
Chain of WHSC1L1 (Q9BZ95 whole entry, species assumed): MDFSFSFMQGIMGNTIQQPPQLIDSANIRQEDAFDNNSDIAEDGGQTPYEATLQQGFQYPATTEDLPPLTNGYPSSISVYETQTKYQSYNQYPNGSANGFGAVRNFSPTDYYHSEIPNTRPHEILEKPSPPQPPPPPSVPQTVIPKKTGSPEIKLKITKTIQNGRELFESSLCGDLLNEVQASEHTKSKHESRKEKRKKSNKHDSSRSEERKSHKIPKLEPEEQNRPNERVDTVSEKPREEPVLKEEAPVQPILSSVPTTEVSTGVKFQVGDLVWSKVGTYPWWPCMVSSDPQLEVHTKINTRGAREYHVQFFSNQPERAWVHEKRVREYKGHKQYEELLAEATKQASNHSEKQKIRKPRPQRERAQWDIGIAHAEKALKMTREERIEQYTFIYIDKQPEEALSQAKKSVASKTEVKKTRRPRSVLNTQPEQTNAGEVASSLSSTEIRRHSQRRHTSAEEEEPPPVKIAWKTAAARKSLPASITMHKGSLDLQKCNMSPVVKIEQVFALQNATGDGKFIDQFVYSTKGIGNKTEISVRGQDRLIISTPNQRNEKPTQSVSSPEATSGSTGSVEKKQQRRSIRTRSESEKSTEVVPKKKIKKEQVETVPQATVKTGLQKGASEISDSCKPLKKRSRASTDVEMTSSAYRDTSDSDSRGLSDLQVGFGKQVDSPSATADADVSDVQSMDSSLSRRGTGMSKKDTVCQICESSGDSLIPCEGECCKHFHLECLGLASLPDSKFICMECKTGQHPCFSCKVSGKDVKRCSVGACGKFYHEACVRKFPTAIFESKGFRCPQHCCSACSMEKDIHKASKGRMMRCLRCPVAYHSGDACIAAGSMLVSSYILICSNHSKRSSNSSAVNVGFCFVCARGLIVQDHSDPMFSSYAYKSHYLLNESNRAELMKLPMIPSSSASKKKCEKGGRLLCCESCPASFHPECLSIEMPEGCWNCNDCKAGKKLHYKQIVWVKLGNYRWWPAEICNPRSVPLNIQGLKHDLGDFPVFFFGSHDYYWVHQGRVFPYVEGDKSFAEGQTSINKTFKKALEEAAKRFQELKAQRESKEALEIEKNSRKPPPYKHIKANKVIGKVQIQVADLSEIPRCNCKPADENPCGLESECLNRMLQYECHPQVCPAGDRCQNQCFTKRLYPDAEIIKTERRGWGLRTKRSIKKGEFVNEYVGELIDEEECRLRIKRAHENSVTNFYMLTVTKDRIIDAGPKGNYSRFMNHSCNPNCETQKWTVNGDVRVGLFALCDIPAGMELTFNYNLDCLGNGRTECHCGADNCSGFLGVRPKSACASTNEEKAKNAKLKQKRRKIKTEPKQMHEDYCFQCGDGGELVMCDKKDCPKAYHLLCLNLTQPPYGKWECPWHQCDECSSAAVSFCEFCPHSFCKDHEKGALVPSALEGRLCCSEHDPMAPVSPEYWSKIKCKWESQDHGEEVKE
Chain of PRMT1 (Q99873 whole entry, species assumed): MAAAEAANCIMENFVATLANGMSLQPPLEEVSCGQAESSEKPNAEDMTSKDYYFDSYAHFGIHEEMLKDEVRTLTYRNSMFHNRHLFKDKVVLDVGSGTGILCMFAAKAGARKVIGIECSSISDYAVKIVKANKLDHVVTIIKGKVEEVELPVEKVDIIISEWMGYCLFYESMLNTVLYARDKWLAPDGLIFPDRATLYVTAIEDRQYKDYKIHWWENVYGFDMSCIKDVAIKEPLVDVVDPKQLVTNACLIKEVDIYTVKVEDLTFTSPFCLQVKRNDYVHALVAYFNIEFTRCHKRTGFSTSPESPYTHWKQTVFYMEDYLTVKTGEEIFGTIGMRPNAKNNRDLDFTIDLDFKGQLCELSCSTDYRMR
Chain of SMYD2 (Q9NRG4 whole entry, species assumed): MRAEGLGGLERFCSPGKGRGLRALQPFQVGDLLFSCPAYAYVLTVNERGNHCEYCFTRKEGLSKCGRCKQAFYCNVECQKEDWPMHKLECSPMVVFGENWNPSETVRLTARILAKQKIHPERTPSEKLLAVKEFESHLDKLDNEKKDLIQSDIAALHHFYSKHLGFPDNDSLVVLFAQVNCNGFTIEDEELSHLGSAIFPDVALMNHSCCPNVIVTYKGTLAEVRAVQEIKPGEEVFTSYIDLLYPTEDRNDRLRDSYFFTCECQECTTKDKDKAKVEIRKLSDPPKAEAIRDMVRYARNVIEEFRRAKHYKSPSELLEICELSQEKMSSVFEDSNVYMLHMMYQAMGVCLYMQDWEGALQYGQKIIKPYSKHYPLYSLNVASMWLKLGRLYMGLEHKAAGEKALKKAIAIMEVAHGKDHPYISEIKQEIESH

CCN(c1cc(-c2ccc(CN3CCOCC3)cc2)cc(C(=O)NCc2c(C)cc(C)[nH]c2=O)c1C)C1CCOCC1 [Compound A, N-((4,6-dimethyl-2-oxo-1,2-dihydropyridin-3-yl)methyl)-5-(ethyl (tetrahydro-2H-pyran-4-yl)amino)-4-methyl-4′-(morpholinomethyl)-[1,1′-biphenyl]-3-carboxamide]
IC50 ([1]; mean of duplicate experiments): > 50 µM | inhibition at 1 µM ([1]; read-out: % Inhibition at 1 μM Compound A, mean and standard deviation of duplicate experiments): 5 ± 3% | IC50 ([2]; one experiment): > 50 µM | inhibition at 1 µM [2, 39]: 2 ± 8% | IC50 ([3]; one experiment): > 50 µM | inhibition at 1 µM [3, 39]: 6 ± 6% | IC50 ([4]; one experiment): > 50 µM | inhibition at 1 µM [4, 39]: 7 ± 3% | IC50 ([5]; one experiment): > 50 µM | inhibition at 1 µM [5, 39]: 5 ± 4% | inhibition at 1 µM [6]: 2 ± 2% | IC50 ([7]; one experiment): > 50 µM | inhibition at 1 µM [7, 39]: 2 ± 6% | inhibition at 1 µM [8]: 3 ± 3% | IC50 ([9]; one experiment): > 50 µM | inhibition at 1 µM [9, 39]: 7 ± 3% | inhibition at 1 µM [10]: 4 ± 3% | IC50 ([11]; one experiment): > 50 µM | inhibition at 1 µM [11, 39]: 1 ± 2% | inhibition at 1 µM [12]: 0% | IC50 ([13]; one experiment): > 100 µM | inhibition at 1 µM [13, 39]: 8 ± 3% | IC50 ([14]; one experiment): > 100 µM | inhibition at 1 µM [14, 39]: 9 ± 8% | Day 11 LCC [15, 40]: 0.36 µM | Day 14 LCC [15, 40]: 0.42 µM | Day 11 LCC [15, 41]: 0.19 µM | Day 14 LCC [15, 41]: 0.075 µM | Day 11 LCC ([15]; No Washout): 0.17 µM | Day 14 LCC ([15]; No Washout): 0.11 µM | sub-G1 fraction ([16]; 1 μM, 7 days): no apparent increase in the sub-G1 fraction | cell cycle progression ([16]; 1 μM, apparent after 2 days, maximum after 4 days): increase in the percentage of cells in G1 phase, and a decrease in the percentage of cells in S phase and G2/M phase | fraction of apoptotic cells (TUNEL assay) ([16]; day 14 compared to vehicle): significantly increased | cell cycle (G1 arrest) [17]: increase in the percentage of cells in G1 phase, and a concomitant decrease in S phase and G2/M phase after 7 days; also recorded: G1 arrest was observed as of day 7 | sub-G1 fraction and apoptotic cells (TUNEL assay) [17]: increased in a time dependent manner; also recorded: apoptosis was induced as of day 11 | cell cycle and apoptosis compared to DMSO control [18]: no changes in cell cycle or apoptosis | expression of CDKN1A, CDKN2A and BIN1 [19]: up-regulated cell cycle inhibitors CDKN1A and CDKN2A and tumor suppressor BIN1 | expression of neuronal differentiation genes CD133, DOCK4, PTPRK [19]: strongly induced expression of CD133, DOCK4 and PTPRK | expression of the SMARCB1 regulated genes [20]: minimal effect on expression | cell morphology [21]: neuron-like morphology | antitumor effect, intermittent dosing schedules ([22]; 90 mg/kg BID): tumor growth inhibition | antitumor effect, intermittent dosing schedules ([22]; 361 mg/kg BID): complete regressions | tumor H3K27Me3 levels ([22]; 7-day study, nude mice, BID and QD schedules): dose-dependent reduction of tumor H3K27Me3 levels | tumor re-growth after cessation of dosing ([22]; higher doses, up to 90 days after cessation of dosing): no re-growth | oral bioavailability [23]: excellent | growth over 11 days [24]: not significantly affected | increase in sensitivity over the Y641 mutant cell lines, measured by IC50 value [25]: 20 fold | increase in sensitivity over the Y641 mutant cell lines, measured by LCC [25]: 300 fold | LCC for WSU-DLCL2 cells as plasma level [26]: 1652 ng/mL | specificity for inhibition of cellular histone methylation [27]: selective inhibition of cellular H3K27 methylation | specificity for inhibition of cellular histone methylation [28]: selective inhibition of cellular H3K27 methylation | sensitivity in vitro (cell viability, CellTiter-Glo) [29]: sensitive | tumor growth after the dosing period compared to vehicle ([30]; 125 mg/kg): significant tumor growth delay | tumor growth after dosing stop compared to vehicle ([30]; 133 mg/kg): significant tumor growth delay | tumor re-growth ([30]; 250 or 500 mg/kg BID, 32 days after dose cessation): Re-growth was not observed | antitumor effect ([30]; 250 or 500 mg/kg twice daily (BID) for 21 to 28 days): practically eliminated | antitumor effect ([30]; 266 or 532 mg/kg BID for 28 days): eliminated | tumor re-growth ([30]; 266 or 532 mg/kg BID, study end, 32 days after dosing stop): re-growth was not observed | plasma levels (systemic exposure) ([30]; 5 min before or 3 h after dosing on day 21, LC-MS/MS): dose-dependent increase in systemic exposure | gene expression in G401 xenograft tumors ([30]; treated 21 days, qPCR): dose-dependent changes in the expression of CD133, PTPRK, DOCK4 and GLI1 | H3K27me3 in tumors (ELISA) ([30]; tumors harvested on day 21, maximum effect at 250 mg/kg): strong inhibition of H3K27me3

CCN(c1cc(-c2ccc(CN3CCOCC3)cc2)cc(C(=O)NCc2c(C)cc(C)[nH]c2=O)c1C)[C@H]1CC[C@H](N(C)C)CC1 [Compound E, N-((4,6-dimethyl-2-oxo-1,2-dihydropyridin-3-yl)methyl)-5-(((1r,4r)-4-(dimethylamino)cyclohexyl)(ethyl)amino)-4-methyl-4′-(morpholinomethyl)-[1,1′-biphenyl]-3-carboxamide]
response compared to wild type cell lines RD and SJCRH30 [31]: selectively respond | response compared to wild type cell lines RD and SJCRH30 [32]: selectively respond | response compared to wild type cell lines RD and SJCRH30 [33]: selectively respond | response in soft agar compared to wild type cells RD [34]: responding | cell growth inhibition [35]: dose-dependent cell growth inhibition | response [36]: responding | response [37]: responding | response [38]: responding | cell morphology ([38]; 4.1E-02 uM or 3.3 uM): changes morphology
